The values below come from patent publication US10053477B2, “Spirocyclic aryl phosphorus oxide and aryl phosphorus sulfide” (QILU PHARMACEUTICAL CO., LTD., priority 2014, dated 2018).

One assay addresses T1, ALK wild-type (Homo sapiens, UniProt Q9UM73).
T1 construct: purchased Carna Biosciences (Japan)
The assay can be described thus: ALK wild-type enzymatic inhibition (HTRF). It is filed as biochemical. To be noted: 30 μM ATP. How it is done: (§1) Enzyme: ALK wild-type, ALK C1156Y and ALK L1196M supplied by Carna Biosciences (Japan), EGFR T790M/L858R supplied by Life technology (Madison, Wis.).
(§2) HTRF kit: supplied by Cis-Bio International, with Eu-marked TK1 antibody, XL665- and biotin-labelled TK1 polypeptide substrates.
10 μl wild-type ALK enzyme reaction mixture system: 0.5 nM wild-type ALK, 1 μM biotin-TK1 peptide, 30 μM ATP. Reaction buffer: 50 mM Hepes (pH7.5), 10 mM MgCl2, 0.01 mM NaV3VO4.
(§3) Incubation was carried out for 60 minutes at room temperature. Detection was by Envision.
(In general: Time-resolved FRET reads energy transfer from a long-lived donor to a nearby acceptor.)

The target in a further assay is T2, ALK C1156Y (Homo sapiens, UniProt Q9UM73, C1156Y).
T2 construct: purchased Carna Biosciences (Japan)
In words: ALK C1156Y enzymatic inhibition (HTRF). The following applies: 30 μM ATP. Format: biochemical. The method, then:
as §1, §2
Reaction buffer: 50 mM Hepes (pH7.5), 10 mM MgCl2, 0.01 mM NaV3VO4. […] Reaction was reacted at room temperature for 60 minutes.
as §3

For the next assay, the target named is T3, ALK L1196M (Homo sapiens, UniProt Q9UM73, L1196M).
T3 construct: purchased Carna Biosciences (Japan)
The assay can be described thus: ALK L1196M enzymatic inhibition (HTRF). Format: biochemical. To be noted: 30 μM ATP. How it is done: as §1, §2
Reaction buffer: 50 mM Hepes (pH7.5), 10 mM MgCl2, 0.01 mM NaV3VO4.
as §3

Another assay concerns the target T4, EGFR T790M/L858R (Homo sapiens, UniProt P00533, L858R/T790M).
T4 construct: purchased Life technology (Madison, Wis.)
The assay can be described thus: EGFR T790M/L858R enzymatic inhibition (HTRF). It is filed as biochemical. To be noted: 20 μM ATP. How it is done:
as §1, §2
The compound to be tested is diluted at a gradient by 3 times thereby giving 11 gradients starting from […] to 0.017 nM for the final concentration.
10 μl EGFR T790M/L858R enzyme reaction mixture system: 0.08 nM EGFR T790M/L858R, 1 μM biotin-TK1 peptide, 20 μM ATP. Reaction buffer: 50 mM Hepes (pH7.5), 10 mM MgCl2, 0.01 mM NaV3VO4. The reaction plate was white Proxiplate 384-Plus plate (PerkinElmer). Reaction was reacted at room temperature for 60 minutes.
Detecting reaction: 10 μl testing reagent was added to the reaction plate, the final concentration of Antibody was 2 nM, XL665 was 62.5 nM. Incubation was carried out for 60 minutes at room temperature. Detection was by Envision.

The test system of assay [1] is LU-01-0319 xenotransplantation (PDX) from lung cancer patients. In words: In vivo efficacy, LU-01-0319 xenotransplantation (PDX) from lung cancer patients. To be noted: 10 mg/kg orally everyday. Further details: species or system BALB/c nude mice. From the text:
(§4) BALB/c nude mice, female, 6 to 8 weeks, about 18 to 22 g bodyweight, was kept in a special environment without pathogens, and a single ventilated cage (5 mice per cage). Beddings and water in all the cages were disinfected before use. All the animal had free access to standard authorized commercially available lab diet. 80 mice were supplied by Shanghai BK Laboratory Animal Co., LTD for study. Each mouse was subcutaneously implanted tumor tissue (20-30 mm^3) at right flank for growth of tumor. When the average tumor volume reached about 250-300 mm^3, the assay started. Test compounds were delivered orally everyday, 10 mg/kg. Tumor size was measured with two-dimensional caliper every 3 days, size was recorded by mm^3, and calculated by the following formula: V=V=0.5a×b2, where a and b are respectively the long diameter and short diameter length of the tumor. The antitumor efficacy was determined by dividing the average increased tumor volume in compound-treated animal by the average increased tumor volume in untreated animal.

For assay [2], the system named is LU-01-0015 xenotransplantation (PDX) from lung cancer patients. In words: In vivo efficacy, LU-01-0015 xenotransplantation (PDX) from lung cancer patients. The arrangement: species or system BALB/c nude mice. To be noted: for Tumor volume: 25 mg/kg orally everyday.
Source text: as §4, with “All the animal had free access to standard authorized commercially available lab diet.” left out, “25” for “10”

Assay [3] relates to LU-01-0319 Crizotinib resistance model. In words: In vivo anti-tumor efficacy, Crizotinib resistant LU-01-0319 xenotransplantation (PDX) tumor. The arrangement: species or system BALB/c nude mice. The source says:
LU-01-0319 xenotransplantation tumor models initially obtained from clinical sample through surgical resection were implanted into nude mice, which was defined as a batch of P0 (LU-01-0319-P0). The next batch was defined as P1 (LU-01-0319-P1) which was implanted tumors from P0. FP3 was regained from P2, the next batch was defined as FP4 which was implanted tumors from FP3. […] The continuous increasing tumors were defined as LU-01-0319 antitumor models. BALB/c nude mice, female, 6 to 8 weeks, about 18 to 22 g bodyweight, 75 mice were used for study, supplied by Shanghai BK Laboratory Animal Co., LTD. Tumour biopsies (about 30 mm^3) of LU-01-0319R FP6 were implanted subcutaneously on right side of each mouse for growth of tumor. […] Dose of Crizotinib was appropriately varied depending on the tumor size. When average tumor volume reached about ˜500 mm^3, the assay began. Once a day the compounds to be tested were orally administered. Tumor size were measured twice a week with a caliper at two dimensions, and calculated with the following formula: V=0.5a×b2, where a and b are respectively long diameter and short diameter of the tumor. The antitumor efficacy was determined by dividing the average increased tumor volume in compound-treated animal by the average increased tumor volume in untreated animal.

The mark [4] stands for this setting: 0 day, dosage 3 mg/Kg orally once a day.
The mark [5] stands for this setting: 0 day, dosage 10 mg/Kg orally once a day.
Setting [6] is: 3 days, dosage 3 mg/Kg orally once a day.
Setting [7] is: 3 days, dosage 10 mg/Kg orally once a day.
Setting [8] is: 7 days, dosage 3 mg/Kg orally once a day.
Where [9] appears, read: 7 days, dosage 10 mg/Kg orally once a day.
Setting [10] is: 10 days, dosage 3 mg/Kg orally once a day.
The mark [11] stands for this setting: 10 days, dosage 10 mg/Kg orally once a day.
The mark [12] stands for this setting: 13 days, dosage 3 mg/Kg orally once a day.
Where [13] appears, read: 13 days, dosage 10 mg/Kg orally once a day.
[14] abbreviates: 17 days, dosage 3 mg/Kg orally once a day.
Where [15] appears, read: 17 days, dosage 10 mg/Kg orally once a day.
[16] abbreviates: 19 days, dosage 3 mg/Kg orally once a day.
The mark [17] stands for this setting: 19 days, dosage 10 mg/Kg orally once a day.

T4 sequence (P00533 25-1210 T790M/L858R): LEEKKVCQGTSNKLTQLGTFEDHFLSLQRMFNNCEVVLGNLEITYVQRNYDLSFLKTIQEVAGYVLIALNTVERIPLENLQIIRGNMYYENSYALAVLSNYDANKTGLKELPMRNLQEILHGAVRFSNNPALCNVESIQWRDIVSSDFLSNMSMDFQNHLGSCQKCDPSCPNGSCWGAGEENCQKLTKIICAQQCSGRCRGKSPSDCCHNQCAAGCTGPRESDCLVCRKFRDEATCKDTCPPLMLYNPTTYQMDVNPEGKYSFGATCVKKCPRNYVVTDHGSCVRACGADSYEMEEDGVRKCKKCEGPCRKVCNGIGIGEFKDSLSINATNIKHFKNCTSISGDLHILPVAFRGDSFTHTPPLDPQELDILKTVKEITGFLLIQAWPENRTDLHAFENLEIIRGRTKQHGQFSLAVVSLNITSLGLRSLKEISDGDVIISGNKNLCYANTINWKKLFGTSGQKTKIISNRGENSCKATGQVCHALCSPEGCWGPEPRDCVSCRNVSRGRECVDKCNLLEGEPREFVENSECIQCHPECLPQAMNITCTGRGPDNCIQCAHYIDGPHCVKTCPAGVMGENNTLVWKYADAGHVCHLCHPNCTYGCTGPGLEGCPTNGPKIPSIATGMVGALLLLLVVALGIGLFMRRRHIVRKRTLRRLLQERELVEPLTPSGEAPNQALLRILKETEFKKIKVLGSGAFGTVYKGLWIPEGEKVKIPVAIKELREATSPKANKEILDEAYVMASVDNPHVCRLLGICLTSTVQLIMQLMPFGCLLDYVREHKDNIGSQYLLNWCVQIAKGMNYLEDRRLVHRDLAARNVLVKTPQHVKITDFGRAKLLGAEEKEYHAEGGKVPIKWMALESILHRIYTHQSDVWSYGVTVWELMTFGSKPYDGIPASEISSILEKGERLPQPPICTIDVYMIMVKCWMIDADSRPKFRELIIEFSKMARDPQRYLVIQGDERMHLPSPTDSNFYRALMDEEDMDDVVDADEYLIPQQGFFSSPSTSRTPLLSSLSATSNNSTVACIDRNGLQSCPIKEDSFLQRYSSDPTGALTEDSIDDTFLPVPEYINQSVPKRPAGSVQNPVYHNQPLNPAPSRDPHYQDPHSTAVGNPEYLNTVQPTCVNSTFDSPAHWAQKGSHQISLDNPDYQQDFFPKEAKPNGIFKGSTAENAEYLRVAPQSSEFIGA
T1 sequence (Q9UM73 19-1620): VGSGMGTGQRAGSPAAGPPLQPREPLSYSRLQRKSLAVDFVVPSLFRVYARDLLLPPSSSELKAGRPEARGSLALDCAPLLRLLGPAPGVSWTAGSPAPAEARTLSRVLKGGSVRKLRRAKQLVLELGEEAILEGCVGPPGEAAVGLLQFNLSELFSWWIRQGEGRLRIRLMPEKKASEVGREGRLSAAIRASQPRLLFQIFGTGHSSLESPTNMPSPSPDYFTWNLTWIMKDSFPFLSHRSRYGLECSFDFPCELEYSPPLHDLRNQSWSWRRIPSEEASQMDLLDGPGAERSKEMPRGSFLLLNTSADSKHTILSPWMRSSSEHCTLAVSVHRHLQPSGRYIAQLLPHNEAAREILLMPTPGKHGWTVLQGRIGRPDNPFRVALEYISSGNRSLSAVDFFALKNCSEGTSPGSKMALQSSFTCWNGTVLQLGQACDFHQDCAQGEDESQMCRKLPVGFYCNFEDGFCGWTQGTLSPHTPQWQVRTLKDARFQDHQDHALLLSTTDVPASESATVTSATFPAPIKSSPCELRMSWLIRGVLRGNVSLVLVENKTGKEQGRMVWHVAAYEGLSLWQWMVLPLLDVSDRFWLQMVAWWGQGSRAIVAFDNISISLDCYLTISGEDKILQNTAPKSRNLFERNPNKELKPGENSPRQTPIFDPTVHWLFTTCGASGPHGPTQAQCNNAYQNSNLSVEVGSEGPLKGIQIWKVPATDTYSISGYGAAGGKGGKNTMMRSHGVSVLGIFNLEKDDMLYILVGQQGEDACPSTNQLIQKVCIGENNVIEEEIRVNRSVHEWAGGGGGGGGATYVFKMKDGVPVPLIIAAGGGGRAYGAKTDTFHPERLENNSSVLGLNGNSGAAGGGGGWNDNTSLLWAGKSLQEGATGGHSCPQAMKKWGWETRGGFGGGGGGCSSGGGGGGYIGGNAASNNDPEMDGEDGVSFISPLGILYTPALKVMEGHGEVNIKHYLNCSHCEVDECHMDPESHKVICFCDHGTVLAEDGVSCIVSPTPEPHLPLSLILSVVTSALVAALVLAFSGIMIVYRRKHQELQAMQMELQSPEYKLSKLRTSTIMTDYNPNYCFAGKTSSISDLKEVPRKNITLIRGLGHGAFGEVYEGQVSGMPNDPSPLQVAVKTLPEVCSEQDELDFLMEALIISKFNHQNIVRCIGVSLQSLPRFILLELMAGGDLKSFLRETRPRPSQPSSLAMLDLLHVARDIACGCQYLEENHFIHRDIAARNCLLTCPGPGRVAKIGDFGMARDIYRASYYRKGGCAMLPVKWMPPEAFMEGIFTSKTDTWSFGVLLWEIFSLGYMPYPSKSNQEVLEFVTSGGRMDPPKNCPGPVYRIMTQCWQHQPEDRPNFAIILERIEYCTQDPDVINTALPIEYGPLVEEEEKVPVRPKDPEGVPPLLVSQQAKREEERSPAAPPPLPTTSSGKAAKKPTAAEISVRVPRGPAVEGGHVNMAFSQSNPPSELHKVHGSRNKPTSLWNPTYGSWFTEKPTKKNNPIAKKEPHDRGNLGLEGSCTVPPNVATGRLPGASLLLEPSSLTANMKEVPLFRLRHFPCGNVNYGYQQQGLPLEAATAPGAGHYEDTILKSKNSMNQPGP
T2 sequence (Q9UM73 19-1620 C1156Y): as the sequence (Q9UM73 19-1620) above, with C1138Y counted along it
T3 sequence (Q9UM73 19-1620 L1196M): as the sequence (Q9UM73 19-1620) above, with L1178M counted along it

Consider `COc1cc(N2CCC3(CCN(C)CC3)CC2)ncc1Nc1ncc(Cl)c(Nc2ccccc2P(C)(C)=O)n1` [Compound 24, (2-((5-Chloro-2-((4-methoxy-6-(9-methyl-3,9-diazaspiro[5.5]undecan-3-yl)pyridin-3-yl)amino)pyrimidin-4-yl)amino)phenyl)dimethyl phosphine oxide], for which the IC50 is 1 to 100 nM against ALK wild-type, 1 to 100 nM at ALK C1156Y, 1 to 100 nM against ALK L1196M and 101 to 1000 nM against EGFR T790M/L858R.

`COc1cc(N2CCC(N3CCN(C)CC3)CC2)ccc1Nc1ncc(Cl)c(Nc2ccccc2P(C)(C)=O)n1` [AP26113, reference compound]: the Tumor volume turned out to be 371 mm^3 in assay [1] (0 days); 437 mm^3 in assay [1] (2 days); 448 mm^3 in assay [1] (6 days); 485 mm^3 in assay [1] (9 days); 512 mm^3 in assay [1] (13 days); 492 mm^3 in assay [1] (16 days). Further, the Tumor volume is on record as 457 mm^3 in assay [1] (20 days); 391 mm^3 in assay [1] (23 days); 207 mm^3 in assay [2] (3 days); 174 mm^3 in assay [2] (6 days); 162 mm^3 in assay [2] (9 days); 142 mm^3 in assay [2] (12 days). Moreover, the Tumor volume is 119 mm^3 in assay [2] (16 days); 122 mm^3 in assay [2] (19 days); 119 mm^3 in assay [2] (23 days); 501 mm^3 in assay [3] (setting [4]); 502 mm^3 in assay [3] (setting [5]); 656 mm^3 in assay [3] (setting [6]). In addition, the Tumor volume in assay [3] (setting [7]) was 646 mm^3; in assay [3] (setting [8]), 690 mm^3; in assay [3] (setting [9]), 604 mm^3; in assay [3] (setting [10]), 898 mm^3; in assay [3] (setting [11]), 593 mm^3; in assay [3] (setting [12]), 1096 mm^3. Moreover, the Tumor volume in assay [3] (setting [13]) is 504 mm^3; in assay [3] (setting [14]) it was 1415 mm^3; in assay [3] (setting [15]) it was 568 mm^3; in assay [3] (setting [16]), 1499 mm^3; in assay [3] (setting [17]), 508 mm^3. The “tumor volume was reduced to (from 277 mm^3)” value in assay [2] (after 16 days, 25 mg/kg) is listed as 119 mm^3.

As to `COc1cc(N2CCC3(CCN(C)CC3)CC2)ccc1Nc1ncc(Cl)c(N(C)c2ccccc2P(C)(C)=O)n1` [Compound 18, (2-((5-Chloro-2-((2-methoxy-4-(9-methyl-3,9-diazaspiro[5.5]undecan-3-yl)phenyl)amino)pyrimidin-4-yl)(methyl)amino)phenyl)dimethyl phosphine oxide], the IC50 at ALK wild-type, on ALK C1156Y, against ALK L1196M and against EGFR T790M/L858R was more than 1000 nM in each case.

As to `COc1cc(N2CCC3(CCN(C)CC3)CC2)ccc1Nc1ncc(C(F)(F)F)c(Nc2ccccc2P(C)(C)=O)n1` [Compound 15, (2-((2-((2-Methoxy-4-(9-methyl-3,9-diazaspiro[5.5]undecan-3-yl)phenyl)amino)-5-(trifluoromethyl)pyrimidin-4-yl)amino)phenyl)dimethyl phosphine oxide], the IC50 is more than 1000 nM against ALK wild-type, more than 1000 nM on ALK C1156Y, 101 to 1000 nM at ALK L1196M and more than 1000 nM against EGFR T790M/L858R.

Take `COc1cc(N2CCC3(CCN(C)CC3)CC2)ccc1Nc1ncc(Cl)c(Oc2ccccc2P(C)(C)=O)n1` [Compound 19, (2-((5-Chloro-2-((2-methoxy-4-(9-methyl-3,9-diazaspiro[5.5]undecan-3-yl)phenyl)amino)pyrimidin-4-yl)oxy)phenyl)dimethyl phosphine oxide]: the IC50 on ALK wild-type, against ALK C1156Y, against ALK L1196M and against EGFR T790M/L858R was more than 1000 nM throughout.

As to `Cc1cc(Nc2ncc(Cl)c(Nc3ccccc3S(=O)(=O)C(C)C)n2)c(OC(C)C)cc1C1CCNCC1` [LDK378], the Tumor volume was determined as 373 mm^3 in assay [1] (0 days); 397 mm^3 in assay [1] (2 days); 366 mm^3 in assay [1] (6 days); 350 mm^3 in assay [1] (9 days); 425 mm^3 in assay [1] (13 days); 369 mm^3 in assay [1] (16 days). The figures for the Tumor volume in assay [1] (20 days) and in assay [1] (23 days) were 329 mm^3 and 268 mm^3, respectively.

Take `COc1cc(C2CCC3(CC2)CCN(C)CC3)ccc1Nc1ncc(Cl)c(Nc2ccccc2P(C)(C)=O)n1` [Compound 27, (2-((5-Chloro-2-((2-methoxy-4-(3-methyl-3-azaspiro[5.5]undecan-9-yl)phenyl)amino)pyrimidin-4-yl)amino)phenyl)dimethyl phosphine oxide]: the Tumor volume came out at 158 mm^3 in assay [2] (3 days); 82 mm^3 in assay [2] (6 days); 68 mm^3 in assay [2] (9 days); 49 mm^3 in assay [2] (12 days); 34 mm^3 in assay [2] (16 days); 41 mm^3 in assay [2] (19 days). In addition, the Tumor volume in assay [2] (23 days) came out at 35 mm^3; in assay [3] (setting [4]), 503 mm^3; in assay [3] (setting [5]), 502 mm^3; in assay [3] (setting [6]), 689 mm^3; in assay [3] (setting [7]), 650 mm^3; in assay [3] (setting [8]), 777 mm^3. Besides, the Tumor volume in assay [3] (setting [9]) is reported as 752 mm^3; in assay [3] (setting [10]) it was 1003 mm^3; in assay [3] (setting [11]) it was 743 mm^3; in assay [3] (setting [12]), 1177 mm^3; in assay [3] (setting [13]), 705 mm^3; in assay [3] (setting [14]), 1490 mm^3. Also, the Tumor volume in assay [3] (setting [15]) is on record as 756 mm^3; in assay [3] (setting [16]), 1602 mm^3; in assay [3] (setting [17]) it was 692 mm^3. This molecule also showed an IC50 at EGFR T790M/L858R of 1 to 100 nM.

A word on the IC50: it is the midpoint of a concentration-inhibition curve. A lower IC50 goes with higher potency.
